Assay results: ChEMBL document CHEMBL1201862, “PubChem BioAssay data set” (2004)
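Cultured in 96-well plates, cells were exposed to test compound for 48 hours across five concentrations. At the GI50, growth is halved.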 Activity calls are given as the source filed them. Cut-off read from the data, not from the text of the source: active = GI50 up to about 1.1 µM and inactive = higher.

How the values were obtained:
Assay in all cases: DTP human tumour cell line panel, 48 h
SNB-75 = system: SNB-75
HCT-116 = system: HCT-116
MDA-MB-435 = system: MDA-MB-435
SR = system: SR
SK-MEL-5 = system: SK-MEL-5
NCI-H460 = system: NCI-H460
OVCAR-8 = system: OVCAR-8
BT-549 = system: BT-549
DU-145 = system: DU-145
MDA-MB-231 = system: MDA-MB-231
EKVX = system: EKVX
SF-539 = system: SF-539
KM12 = system: KM12
CAKI-1 = system: CAKI-1
MCF7 = system: MCF7
COLO 205 = system: COLO 205
SW-620 = system: SW-620
UACC-62 = system: UACC-62
SK-MEL-2 = system: SK-MEL-2
HL-60 = system: HL-60
M14 = system: M14
NCI/ADR-RES = system: NCI/ADR-RES
HT-29 = system: HT-29
K562 = system: K562
UACC-257 = system: UACC-257
OVCAR-5 = system: OVCAR-5
MDA-N = system: MDA-N
RPMI-8226 = system: RPMI-8226
Hs-578T = system: Hs-578T
IGROV-1 = system: IGROV-1
SN12C = system: SN12C
SF-268 = system: SF-268
SF-295 = system: SF-295
SK-OV-3 = system: SK-OV-3
RXF 393 = system: RXF 393
HCT-15 = system: HCT-15
U-251 = system: U-251
MOLT-4 = system: MOLT-4
786-0 = system: 786-0
HOP-92 = system: HOP-92
PC-3 = system: PC-3
NCI-H522 = system: NCI-H522
Malme-3M = system: Malme-3M
A549 = system: A549
T47D = system: T47D
NCI-H226 = system: NCI-H226
TK-10 = system: TK-10
CCRF-CEM = system: CCRF-CEM
HOP-62 = system: HOP-62
ACHN = system: ACHN
A498 = system: A498
SNB-19 = system: SNB-19
OVCAR-4 = system: OVCAR-4
SK-MEL-28 = system: SK-MEL-28
UO-31 = system: UO-31
LOX IMVI = system: LOX IMVI
OVCAR-3 = system: OVCAR-3
HCC 2998 = system: HCC 2998
NCI-H23 = system: NCI-H23

`CCC(CCN)(CCN)[N+](=O)[O-]` was tested, and the GI50 (SNB-75) was > 100 µM (inactive), the GI50 (HCT-116) was > 100 µM (inactive) and the GI50 (MDA-MB-435) was > 100 µM (inactive). For the same compound, the GI50 (SR) was > 100 µM (inactive), the GI50 (SK-MEL-5) was > 100 µM (inactive) and the GI50 (NCI-H460) was > 100 µM (inactive). For the same compound, the GI50 (OVCAR-8) was > 100 µM (inactive), the GI50 (BT-549) was > 100 µM (inactive) and the GI50 (DU-145) was > 100 µM (inactive). For the same compound, the GI50 (MDA-MB-231) was > 100 µM (inactive), the GI50 (EKVX) was > 100 µM (inactive) and the GI50 (SF-539) was > 100 µM (inactive). For the same compound, the GI50 (KM12) was > 100 µM (inactive), the GI50 (CAKI-1) was > 100 µM (inactive) and the GI50 (MCF7) was > 100 µM (inactive). For the same compound, the GI50 (COLO 205) was > 100 µM (inactive), the GI50 (SW-620) was > 100 µM (inactive) and the GI50 (UACC-62) was > 100 µM (inactive). The GI50 (SK-MEL-2) was > 100 µM (inactive), the GI50 (HL-60) was > 100 µM (inactive) and the GI50 (M14) was > 100 µM (inactive). For the same compound, the GI50 (NCI/ADR-RES) was > 100 µM (inactive), the GI50 (HT-29) was > 100 µM (inactive) and the GI50 (K562) was > 100 µM (inactive). The GI50 (UACC-257) was > 100 µM (inactive), the GI50 (OVCAR-5) was > 100 µM (inactive) and the GI50 (MDA-N) was > 100 µM (inactive). The GI50 (RPMI-8226) was > 100 µM (inactive), the GI50 (Hs-578T) was > 100 µM (inactive) and the GI50 (IGROV-1) was > 100 µM (inactive). The GI50 (SN12C) was > 100 µM (inactive), the GI50 (SF-268) was > 100 µM (inactive) and the GI50 (SF-295) was > 100 µM (inactive). The GI50 (SK-OV-3) was > 100 µM (inactive), the GI50 (RXF 393) was > 100 µM (inactive) and the GI50 (HCT-15) was greater than 100 µM. The GI50 (U-251) was > 100 µM (inactive), the GI50 (MOLT-4) was > 100 µM (inactive) and the GI50 (786-0) was > 100 µM (inactive). For the same compound, the GI50 (HOP-92) was > 100 µM (inactive), the GI50 (PC-3) was > 100 µM (inactive) and the GI50 (NCI-H522) was 58.3 µM (inactive). For the same compound, the GI50 (Malme-3M) was > 100 µM (inactive), the GI50 (A549) was > 100 µM (inactive) and the GI50 (T47D) was > 100 µM (inactive).

With `CC(CC(C#N)(c1ccccc1)c1ccccc1)N1CCCCC1` (configuration not stated) the GI50 (NCI-H226) was 20.7 µM (inactive), the GI50 (SNB-75) was 29.7 µM (inactive) and the GI50 (HCT-116) was 19.9 µM (inactive). The GI50 (MDA-MB-435) was 19.1 µM (inactive), the GI50 (TK-10) was 20.6 µM (inactive) and the GI50 (CCRF-CEM) was 23.6 µM (inactive). The GI50 (SK-MEL-5) was 18 µM (inactive), the GI50 (HOP-62) was 29.2 µM (inactive) and the GI50 (NCI-H460) was 16 µM (inactive). The GI50 (OVCAR-8) was 42.1 µM (inactive), the GI50 (BT-549) was 29.5 µM (inactive) and the GI50 (DU-145) was 59.8 µM (inactive). For the same compound, the GI50 (MDA-MB-231) was 25.7 µM (inactive), the GI50 (EKVX) was 23.8 µM (inactive) and the GI50 (KM12) was 18.1 µM (inactive). The GI50 (ACHN) was 43.7 µM (inactive), the GI50 (CAKI-1) was 39 µM (inactive) and the GI50 (MCF7) was 26.5 µM (inactive). For the same compound, the GI50 (COLO 205) was 16.2 µM (inactive), the GI50 (SW-620) was 19.2 µM (inactive) and the GI50 (UACC-62) was 21.3 µM (inactive). For the same compound, the GI50 (A498) was 21.6 µM (inactive), the GI50 (SNB-19) was 80.5 µM (inactive) and the GI50 (SK-MEL-2) was 21.2 µM (inactive). For the same compound, the GI50 (HL-60) was 21 µM (inactive), the GI50 (M14) was 19 µM (inactive) and the GI50 (NCI/ADR-RES) was 28.1 µM (inactive). For the same compound, the GI50 (HT-29) was 18.3 µM (inactive), the GI50 (K562) was 19.3 µM (inactive) and the GI50 (UACC-257) was 14.6 µM (inactive). For the same compound, the GI50 (OVCAR-5) was 33.1 µM (inactive), the GI50 (OVCAR-4) was 39.6 µM (inactive) and the GI50 (MDA-N) was 19.1 µM (inactive). The GI50 (SK-MEL-28) was 23.1 µM (inactive), the GI50 (RPMI-8226) was 19.2 µM (inactive) and the GI50 (UO-31) was 26.2 µM (inactive). For the same compound, the GI50 (LOX IMVI) was 17.3 µM (inactive), the GI50 (Hs-578T) was 27.3 µM (inactive) and the GI50 (IGROV-1) was 43.2 µM (inactive). The GI50 (SN12C) was 26 µM (inactive), the GI50 (SF-268) was 48.9 µM (inactive) and the GI50 (OVCAR-3) was 17.6 µM (inactive). The GI50 (SF-295) was 20 µM (inactive), the GI50 (SK-OV-3) was 65.6 µM (inactive) and the GI50 (RXF 393) was 28.7 µM (inactive). For the same compound, the GI50 (HCT-15) was 22.9 µM, the GI50 (U-251) was 29.6 µM (inactive) and the GI50 (MOLT-4) was 22.4 µM (inactive). For the same compound, the GI50 (786-0) was 27.3 µM (inactive), the GI50 (HOP-92) was 31.9 µM (inactive) and the GI50 (PC-3) was 32.6 µM (inactive). For the same compound, the GI50 (HCC 2998) was 15.4 µM (inactive), the GI50 (NCI-H522) was 18.6 µM (inactive) and the GI50 (Malme-3M) was 17.3 µM (inactive). The GI50 (A549) was 44 µM (inactive), the GI50 (NCI-H23) was 37.8 µM (inactive) and the GI50 (T47D) was 49.7 µM (inactive).

`CCOP(=O)(OCC)/C(=C/c1cccs1)CC(C)=O` was tested, and the GI50 (NCI-H226) was > 100 µM (inactive), the GI50 (SNB-75) was > 100 µM (inactive) and the GI50 (HCT-116) was > 100 µM (inactive). The GI50 (MDA-MB-435) was > 100 µM (inactive), the GI50 (TK-10) was > 100 µM (inactive) and the GI50 (CCRF-CEM) was > 100 µM (inactive). For the same compound, the GI50 (SK-MEL-5) was > 100 µM (inactive), the GI50 (HOP-62) was > 100 µM (inactive) and the GI50 (NCI-H460) was > 100 µM (inactive). For the same compound, the GI50 (OVCAR-8) was > 100 µM (inactive), the GI50 (BT-549) was > 100 µM (inactive) and the GI50 (DU-145) was > 100 µM (inactive). The GI50 (MDA-MB-231) was > 100 µM (inactive), the GI50 (EKVX) was > 100 µM (inactive) and the GI50 (SF-539) was > 100 µM (inactive). The GI50 (KM12) was > 100 µM (inactive), the GI50 (ACHN) was > 100 µM (inactive) and the GI50 (CAKI-1) was > 100 µM (inactive). The GI50 (MCF7) was > 100 µM (inactive), the GI50 (COLO 205) was > 100 µM (inactive) and the GI50 (SW-620) was > 100 µM (inactive). For the same compound, the GI50 (UACC-62) was > 100 µM (inactive), the GI50 (A498) was 75.3 µM (inactive) and the GI50 (SNB-19) was > 100 µM (inactive). For the same compound, the GI50 (SK-MEL-2) was > 100 µM (inactive), the GI50 (M14) was > 100 µM (inactive) and the GI50 (NCI/ADR-RES) was > 100 µM (inactive). For the same compound, the GI50 (HT-29) was > 100 µM (inactive), the GI50 (K562) was > 100 µM (inactive) and the GI50 (UACC-257) was > 100 µM (inactive). The GI50 (OVCAR-5) was > 100 µM (inactive), the GI50 (OVCAR-4) was > 100 µM (inactive) and the GI50 (MDA-N) was > 100 µM (inactive). The GI50 (SK-MEL-28) was > 100 µM (inactive), the GI50 (UO-31) was > 100 µM (inactive) and the GI50 (LOX IMVI) was > 100 µM (inactive). For the same compound, the GI50 (Hs-578T) was > 100 µM (inactive), the GI50 (IGROV-1) was > 100 µM (inactive) and the GI50 (SN12C) was > 100 µM (inactive). For the same compound, the GI50 (SF-268) was > 100 µM (inactive), the GI50 (OVCAR-3) was > 100 µM (inactive) and the GI50 (SF-295) was > 100 µM (inactive). The GI50 (SK-OV-3) was > 100 µM (inactive), the GI50 (RXF 393) was > 100 µM (inactive) and the GI50 (HCT-15) was greater than 100 µM. For the same compound, the GI50 (U-251) was > 100 µM (inactive), the GI50 (MOLT-4) was 9.71 µM (inactive) and the GI50 (786-0) was > 100 µM (inactive). The GI50 (HOP-92) was > 100 µM (inactive), the GI50 (PC-3) was > 100 µM (inactive) and the GI50 (HCC 2998) was > 100 µM (inactive). For the same compound, the GI50 (Malme-3M) was > 100 µM (inactive), the GI50 (A549) was > 100 µM (inactive) and the GI50 (NCI-H23) was > 100 µM (inactive). The GI50 (T47D) was 73.8 µM (inactive).
